According to patent US8586555B2, “Immunomodulatory compositions, formulations, and methods for use thereof” (Dynavax Technologies Corporation, priority 2001, dated 2013):

Test system: human peripheral blood mononuclear cells (hPBMC)
Assay: human PBMC assay, Example 6
Type: cell-based
Experimental: Hexameric oligonucleotides were tested for immunomodulatory activity alone and complexed with lactic acid/glycolic acid copolymer microcarrier beads using a human peripheral blood mononuclear cells (hPBMC) assay. Peripheral blood was collected from healthy volunteers by venipuncture using heparinized syringes. Blood was layered onto a FICOLL® (Amersham Pharmacia Biotech) cushion and centrifuged. hPBMCs, located at the FICOLL® interface, were collected, then washed twice with cold phosphate buffered saline (PBS). The cells were resuspended and cultured in 48 well plates at 2×10^6 cells/mL at 37° C. in RPMI 1640 with 10% heat-inactivated human AB serum plus 50 units/mL penicillin, 50 μg/mL streptomycin, 300 μg/mL glutamine, 1 mM sodium pyruvate, and 1×MEM non-essential amino acids (NEAA).
Oligonucleotides were tested as single agents, or in combination with PLGA microspheres (unmodified or cationic). All oligonucleotides contained 100% phosphorothioate linkages and were tested at 20 μg/ml. The PLGA microcarriers were used at 250 μg/ml. When oligos were tested with PLGA microcarriers, the oligo and the microcarriers were added at the same time to the culture. The cells were cultured in the in the presence of test samples for 24 hours, then cell-free medium was collected from each well and assayed for IFN-γ and IFN-α concentration. Two different oligonucleotides were used as controls: a first oligonucleotide known to have immunostimulatory activity (a 22mer oligonucleotide containing an ISS (“ISS+,” 5′-[…]-3′(SEQ ID NO:2)) and a second oligonucleotide of similar sequence but lacking immunostimulatory activity (“ISS−,” 5′-[…]-3′ (SEQ ID NO:1)). SAC (PANSORBIN® CalBiochem, 1/5000 dilution) and a untreated culture were used as additional positive and negative controls, respectively. SAC contains Staph. aureus (Cowan I) cell material. All samples were assayed in duplicate.
IFN-γ and IFN-α were assayed using CYTOSCREEN™ ELISA kits from BioSource International, Inc., according to the manufacturer's instructions.
The immunomodulatory activity of the oligonucleotides used in Examples 3 and 4 was confirmed with the human PBMC assay using PBMCs from an additional four donors (donors 28051-28054). Oligonucleotides were tested alone or in combination with cationic PLGA as described in Example 3, except that 96 well plates were used instead of 48 well plates and the oligonucleotides were premixed with the cationic microspheres at room temperature for 15 minutes before they were added to the culture, rather than being added simultaneously to the culture.
Additional oligonucleotides were tested for immunomodulatory activity in the human PBMC assay. Oligonucleotides were tested alone or in combination with cPLGA as described in Example 5.
Additional oligonucleotides were tested using hPBMCs from volunteers 154-157 using the same assay. Results, which are shown in Table 7, confirm the activity of oligonucleotides fitting the formula 5′-X1TCGX2-3′, where the oligonucleotide is a 3-6mer, X1 is zero or one nucleotide and X2 is zero to three nucleotides.

[1] = delivered as oligonucleotide/MC complex (cPLGA)

5′-ACGTTT-3′ [Oligonucleotide 6-13]
immunomodulatory activity (delivered alone): inactive
immunomodulatory activity [1]: inactive
IFN-α (donor 28075): 10 pg/mL
IFN-γ (donor 28075): 8 pg/mL
IFN-α (donor 28076): 39 pg/mL
IFN-γ (donor 28076): 225 pg/mL
IFN-α (donor 28077): 28 pg/mL
IFN-γ (donor 28077): 18 pg/mL
IFN-α (donor 28078): 34 pg/mL
IFN-γ (donor 28078): 15 pg/mL
IFN-α Mean (mean of donors 28075-28078): 28 pg/mL
IFN-γ Mean (mean of donors 28075-28078): 67 pg/mL

5′-CCGTTT-3′ [Oligonucleotide 6-14]
immunomodulatory activity (delivered alone): inactive
immunomodulatory activity [1]: inactive
IFN-α (donor 28075): 15 pg/mL
IFN-γ (donor 28075): 11 pg/mL
IFN-α (donor 28076): 51 pg/mL
IFN-γ (donor 28076): 12 pg/mL
IFN-α (donor 28077): 9 pg/mL
IFN-γ (donor 28077): 14 pg/mL
IFN-α (donor 28078): 230 pg/mL
IFN-γ (donor 28078): 11 pg/mL
IFN-α Mean (mean of donors 28075-28078): 76 pg/mL
IFN-γ Mean (mean of donors 28075-28078): 12 pg/mL

5′-CGATCG-3′ [Oligonucleotide 6-11]
IFN-α Mean (mean of volunteers 154-157): 0 pg/mL
IFN-γ Mean (mean of volunteers 154-157): 3 pg/mL
IFN-α (volunteer 154): 0 pg/mL
IFN-γ (volunteer 154): 0 pg/mL
IFN-α (volunteer 155): 0 pg/mL
IFN-γ (volunteer 155): 0 pg/mL
IFN-α (volunteer 156): 0 pg/mL
IFN-γ (volunteer 156): 10 pg/mL
IFN-α (volunteer 157): 0 pg/mL
IFN-γ (volunteer 157): 0 pg/mL

5′-GACGTT-3′ [Oligonucleotide 6-17, reference compound]
immunomodulatory activity [1]: largely inactive
IFN-α Mean (mean of volunteers 154-157): 0 pg/mL
IFN-γ Mean (mean of volunteers 154-157): 4 pg/mL
IFN-α (volunteer 154): 0 pg/mL
IFN-γ (volunteer 154): 0 pg/mL
IFN-α (volunteer 155): 0 pg/mL
IFN-γ (volunteer 155): 0 pg/mL
IFN-α (volunteer 156): 0 pg/mL
IFN-γ (volunteer 156): 16 pg/mL
IFN-α (volunteer 157): 0 pg/mL
IFN-γ (volunteer 157): 0 pg/mL

5′-GCGTTT-3′ [Oligonucleotide 6-15]
immunomodulatory activity (delivered alone): inactive
immunomodulatory activity [1]: inactive
IFN-α (donor 28075): 36 pg/mL
IFN-γ (donor 28075): 11 pg/mL
IFN-α (donor 28076): 9 pg/mL
IFN-γ (donor 28076): 12 pg/mL
IFN-α (donor 28077): 35 pg/mL
IFN-γ (donor 28077): 15 pg/mL
IFN-α (donor 28078): 36 pg/mL
IFN-γ (donor 28078): 11 pg/mL
IFN-α Mean (mean of donors 28075-28078): 29 pg/mL
IFN-γ Mean (mean of donors 28075-28078): 13 pg/mL

5′-TCCGGA-3′ [Oligonucleotide 6-18, reference compound]
immunomodulatory activity [1]: largely inactive
IFN-α Mean (mean of volunteers 154-157): 0 pg/mL
IFN-γ Mean (mean of volunteers 154-157): 4 pg/mL
IFN-α (volunteer 154): 0 pg/mL
IFN-γ (volunteer 154): 0 pg/mL
IFN-α (volunteer 155): 0 pg/mL
IFN-γ (volunteer 155): 0 pg/mL
IFN-α (volunteer 156): 0 pg/mL
IFN-γ (volunteer 156): 15 pg/mL
IFN-α (volunteer 157): 0 pg/mL
IFN-γ (volunteer 157): 0 pg/mL

5′-TCG-3′ [Oligonucleotide 3-1]
immunomodulatory activity [1]: active in two out of four donors
IFN-α (donor 28075): 0 pg/mL
IFN-γ (donor 28075): 7 pg/mL
IFN-α (donor 28076): 0 pg/mL
IFN-γ (donor 28076): 11 pg/mL
IFN-α (donor 28077): 4 pg/mL
IFN-γ (donor 28077): 12 pg/mL
IFN-α (donor 28078): 11 pg/mL
IFN-γ (donor 28078): 15 pg/mL
IFN-α Mean (mean of donors 28075-28078): 4 pg/mL
IFN-γ Mean (mean of donors 28075-28078): 11 pg/mL

5′-TCGCGA-3′ [Oligonucleotide 6-10]
IFN-α Mean (mean of volunteers 154-157): 0 pg/mL
IFN-γ Mean (mean of volunteers 154-157): 4 pg/mL
IFN-α (volunteer 154): 0 pg/mL
IFN-γ (volunteer 154): 0 pg/mL
IFN-α (volunteer 155): 0 pg/mL
IFN-γ (volunteer 155): 0 pg/mL
IFN-α (volunteer 156): 0 pg/mL
IFN-γ (volunteer 156): 15 pg/mL
IFN-α (volunteer 157): 0 pg/mL
IFN-γ (volunteer 157): 0 pg/mL

5′-TCGT-3′ [Oligonucleotide 4-1]
immunomodulatory activity [1]: active in two out of four donors
IFN-α (donor 28075): 0 pg/mL
IFN-γ (donor 28075): 9 pg/mL
IFN-α (donor 28076): 3 pg/mL
IFN-γ (donor 28076): 12 pg/mL
IFN-α (donor 28077): 0 pg/mL
IFN-γ (donor 28077): 14 pg/mL
IFN-α (donor 28078): 10 pg/mL
IFN-γ (donor 28078): 14 pg/mL
IFN-α Mean (mean of donors 28075-28078): 3 pg/mL
IFN-γ Mean (mean of donors 28075-28078): 12 pg/mL
